PubChem BioAssay AID1963451 (Molecular Pharmacology Branch, DTP, NCI, 2024)
Values joined by “and” are separate entries in the source; they are usually repeats but may differ in a detail not shown here. Equal entries are not always repeated.

Tested on: 521955-158-R6-J3-PDC complex spheroid growth, % test/control
Experiment: Anticancer human tumor 521955-158-R6-J3-PDC patient-derived pancreatic carcinoma cell line growth inhibition [Asc]
Conditions: for viability, T/C: stronger effect = lower value
In short: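 Concentration series start at each agent's clinical Cmax, or at 10 microM when none is established, and drop in half-log steps; agents are applied alone or together to complex spheroids built with HUVEC and hMSC.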

[1] = curve of first compound, second compound 0.0316 µM
[2] = curve of first compound, second compound 0.1 µM
[3] = curve of first compound, second compound 0.316 µM
[4] = curve of first compound, second compound 1 µM
[5] = curve of first compound, second compound 3.16 µM
[6] = curve of first compound, second compound 10 µM
[7] = second compound 0.0316 µM, first compound 0.0316 µM
[8] = second compound 0.0316 µM, first compound 0.1 µM
[9] = second compound 0.0316 µM, first compound 0.316 µM
[10] = second compound 0.0316 µM, first compound 1 µM
[11] = second compound 0.0316 µM, first compound 3.16 µM
[12] = second compound 0.0316 µM, first compound 10 µM
[13] = second compound 0.1 µM, first compound 0.0316 µM
[14] = second compound 0.1 µM, first compound 0.1 µM
[15] = second compound 0.1 µM, first compound 0.316 µM
[16] = second compound 0.1 µM, first compound 1 µM
[17] = second compound 0.1 µM, first compound 3.16 µM
[18] = second compound 0.1 µM, first compound 10 µM
[19] = second compound 0.316 µM, first compound 0.0316 µM
[20] = second compound 0.316 µM, first compound 0.1 µM
[21] = second compound 0.316 µM, first compound 0.316 µM
[22] = second compound 0.316 µM, first compound 1 µM
[23] = second compound 0.316 µM, first compound 3.16 µM
[24] = second compound 0.316 µM, first compound 10 µM
[25] = second compound 1 µM, first compound 0.0316 µM
[26] = second compound 1 µM, first compound 0.1 µM
[27] = second compound 1 µM, first compound 0.316 µM
[28] = second compound 1 µM, first compound 1 µM
[29] = second compound 1 µM, first compound 3.16 µM
[30] = second compound 1 µM, first compound 10 µM
[31] = second compound 3.16 µM, first compound 0.0316 µM
[32] = second compound 3.16 µM, first compound 0.1 µM
[33] = second compound 3.16 µM, first compound 0.316 µM
[34] = second compound 3.16 µM, first compound 1 µM
[35] = second compound 3.16 µM, first compound 3.16 µM
[36] = second compound 3.16 µM, first compound 10 µM
[37] = second compound 10 µM, first compound 0.0316 µM
[38] = second compound 10 µM, first compound 0.1 µM
[39] = second compound 10 µM, first compound 0.316 µM
[40] = second compound 10 µM, first compound 1 µM
[41] = second compound 10 µM, first compound 3.16 µM
[42] = second compound 10 µM, first compound 10 µM
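Further: spheroids exposed to compounds for 7 days.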
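Wherever viability, T/C is given: 100% = DMSO vehicle control wells.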

COc1c(OCCCN2CCOCC2)ccc2c3n(c(=NC(=O)c4cnc(N)nc4)nc12)CCN3 + CCN1C(C(=O)NC23CCC(C(=O)O)(CC2)CC3)C(c2cccc(Cl)c2F)C2(C(=O)Nc3cc(Cl)ccc32)C12CCCCC2
IC50 (curve of first compound, second compound 0.00949 µM): 211 nM
IC50 (curve of first compound, second compound 0.03 µM): 365 nM
IC50 (curve of first compound, second compound 0.0949 µM): 469 nM
IC50 (curve of first compound, second compound 0.3 µM): 321 nM
IC50 (curve of first compound, second compound 0.949 µM): 309 nM
IC50 (curve of first compound, second compound 3 µM): 290 nM
viability, T/C (second compound 0.00949 µM, first compound 0.00316 µM): 102%
viability, T/C (second compound 0.00949 µM, first compound 0.01 µM): 79.9%
viability, T/C (second compound 0.00949 µM, first compound 0.0316 µM): 62.5%
viability, T/C (second compound 0.00949 µM, first compound 0.1 µM): 65.2%
viability, T/C (second compound 0.00949 µM, first compound 0.316 µM): 51.9%
viability, T/C (second compound 0.00949 µM, first compound 1 µM): 28.3%
viability, T/C (second compound 0.03 µM, first compound 0.00316 µM): 93.4%
viability, T/C (second compound 0.03 µM, first compound 0.01 µM): 77.1%
viability, T/C (second compound 0.03 µM, first compound 0.0316 µM): 73.2%
viability, T/C (second compound 0.03 µM, first compound 0.1 µM): 66.2%
viability, T/C (second compound 0.03 µM, first compound 0.316 µM): 52.6%
viability, T/C (second compound 0.03 µM, first compound 1 µM): 37.4%
viability, T/C (second compound 0.0949 µM, first compound 0.00316 µM): 79.1%
viability, T/C (second compound 0.0949 µM, first compound 0.01 µM): 77.9%
viability, T/C (second compound 0.0949 µM, first compound 0.0316 µM): 59.5%
viability, T/C (second compound 0.0949 µM, first compound 0.1 µM): 77.7%
viability, T/C (second compound 0.0949 µM, first compound 0.316 µM): 53.9%
viability, T/C (second compound 0.0949 µM, first compound 1 µM): 37%
viability, T/C (second compound 0.3 µM, first compound 0.00316 µM): 95.5%
viability, T/C (second compound 0.3 µM, first compound 0.01 µM): 83.3%
viability, T/C (second compound 0.3 µM, first compound 0.0316 µM): 70.1%
viability, T/C (second compound 0.3 µM, first compound 0.1 µM): 65.5%
viability, T/C (second compound 0.3 µM, first compound 0.316 µM): 56%
viability, T/C (second compound 0.3 µM, first compound 1 µM): 32.1%
viability, T/C (second compound 0.949 µM, first compound 0.00316 µM): 84%
viability, T/C (second compound 0.949 µM, first compound 0.01 µM): 90.6%
viability, T/C (second compound 0.949 µM, first compound 0.0316 µM): 80.5%
viability, T/C (second compound 0.949 µM, first compound 0.1 µM): 67.6%
viability, T/C (second compound 0.949 µM, first compound 0.316 µM): 50.6%
viability, T/C (second compound 0.949 µM, first compound 1 µM): 32.7%
viability, T/C (second compound 3 µM, first compound 0.00316 µM): 82.1%
viability, T/C (second compound 3 µM, first compound 0.01 µM): 83.8%
viability, T/C (second compound 3 µM, first compound 0.0316 µM): 78.8%
viability, T/C (second compound 3 µM, first compound 0.1 µM): 65%
viability, T/C (second compound 3 µM, first compound 0.316 µM): 49.6%
viability, T/C (second compound 3 µM, first compound 1 µM): 28.8%

O=C(c1cc(Cc2n[nH]c(=O)c3ccccc23)ccc1F)N1CCN(C(=O)C2CC2)CC1 + Cc1c(S(C)(=O)=O)c(-c2cc(F)cc(N3CCN(c4ccc(NS(=O)(=O)c5ccc(NC(CCN6CCC(C(=O)OCCCP(=O)(O)O)CC6)CSc6ccccc6)c(S(=O)(=O)C(F)(F)F)c5)cc4)CC3)c2)c(-c2ccc(Cl)cc2)n1C(C)C
IC50 [1]: > 10000 nM
IC50 [2]: > 10000 nM
IC50 [3]: 786 nM
IC50 [4]: < 31.6 nM
IC50 [5]: < 31.6 nM
IC50 [6]: < 31.6 nM
viability, T/C [7]: 77.8%
viability, T/C [8]: 86.6%
viability, T/C [9]: 87.5%
viability, T/C [10]: 83.3%
viability, T/C [11]: 75.6%
viability, T/C [12]: 76.8%
viability, T/C [13]: 88.4%
viability, T/C [14]: 71.9%
viability, T/C [15]: 64%
viability, T/C [16]: 62.6%
viability, T/C [17]: 60.7%
viability, T/C [18]: 54%
viability, T/C [19]: 56.4%
viability, T/C [20]: 61.7%
viability, T/C [21]: 52.6%
viability, T/C [22]: 48.6%
viability, T/C [23]: 41.7%
viability, T/C [24]: 35%
viability, T/C [25]: 41%
viability, T/C [26]: 34.6%
viability, T/C [27]: 31.1%
viability, T/C [28]: 30.1%
viability, T/C [29]: 32.4%
viability, T/C [30]: 27.2%
viability, T/C [31]: 23.3%
viability, T/C [32]: 19.1%
viability, T/C [33]: 17.1%
viability, T/C [34]: 19.3%
viability, T/C [35]: 16%
viability, T/C [36]: 13.4%
viability, T/C [37]: 14.4%
viability, T/C [38]: 15.4%
viability, T/C [39]: 11.7%
viability, T/C [40]: 13%
viability, T/C [41]: 10%
viability, T/C [42]: 9.06%

NC(=O)C(=Cn1cnc(-c2cc(C(F)(F)F)cc(C(F)(F)F)c2)n1)c1cncnc1
viability, T/C (compound 0.000949 µM): 105% and 126% and 111%
viability, T/C (compound 0.003 µM): 96.3% and 105% and 115%
viability, T/C (compound 0.00949 µM): 84.8% and 93.3% and 105%
viability, T/C (compound 0.03 µM): 98% and 98.2% and 115%
viability, T/C (compound 0.0949 µM): 124% and 107% and 73.9%
viability, T/C (compound 0.3 µM): 121% and 93.9% and 62.7%
IC50 (curve of compound): > 300 nM

C=CC(=O)N1CCN(c2nc(=O)n(-c3c(C)ccnc3C(C)C)c3nc(-c4c(O)cccc4F)c(F)cc23)C(C)C1 (stereo not drawn) + Cc1c(S(C)(=O)=O)c(-c2cc(F)cc(N3CCN(c4ccc(NS(=O)(=O)c5ccc(NC(CCN6CCC(C(=O)OCCCP(=O)(O)O)CC6)CSc6ccccc6)c(S(=O)(=O)C(F)(F)F)c5)cc4)CC3)c2)c(-c2ccc(Cl)cc2)n1C(C)C
IC50 [1]: > 10000 nM
IC50 [2]: > 10000 nM
IC50 [3]: < 31.6 nM
IC50 [4]: < 31.6 nM
IC50 [5]: < 31.6 nM
IC50 [6]: < 31.6 nM
viability, T/C [7]: 84.4%
viability, T/C [8]: 84%
viability, T/C [9]: 84.6%
viability, T/C [10]: 80.3%
viability, T/C [11]: 79.7%
viability, T/C [12]: 79.7%
viability, T/C [13]: 72.2%
viability, T/C [14]: 72.3%
viability, T/C [15]: 67.6%
viability, T/C [16]: 68.4%
viability, T/C [17]: 59.6%
viability, T/C [18]: 50.7%
viability, T/C [19]: 47.8%
viability, T/C [20]: 48.4%
viability, T/C [21]: 42.5%
viability, T/C [22]: 46.3%
viability, T/C [23]: 38.3%
viability, T/C [24]: 29.2%
viability, T/C [25]: 45.6%
viability, T/C [26]: 36.8%
viability, T/C [27]: 41.8%
viability, T/C [28]: 33.7%
viability, T/C [29]: 23.6%
viability, T/C [30]: 19.8%
viability, T/C [31]: 23.1%
viability, T/C [32]: 22.8%
viability, T/C [33]: 17.4%
viability, T/C [34]: 15.6%
viability, T/C [35]: 12.6%
viability, T/C [36]: 7.39%
viability, T/C [37]: 12.7%
viability, T/C [38]: 9.59%
viability, T/C [39]: 12.5%
viability, T/C [40]: 9.66%
viability, T/C [41]: 23.2%
viability, T/C [42]: 8.51%
